System: pDCs
Test: Stimulation of pDCs (IFN-α ELISA)
Type: cell-based
Conditions: peptide premixed with human genomic DNA 10 µg/mL, 24 hours, Fig. S4B
Description: Buffy coats of HD were from Centro Trasfusionale, Policlinico Umberto I, Rome, IT. After separation of mononuclear cells by Ficoll centrifugation, pDCs were purified as described[9],[10], by using the Diamond Plasmacytoid Dendritic Cell Isolation Kit (Miltenyi Biotec) to obtain 99% purity.
Antibodies and reagents for flow cytometry, confocal microscopy and immunohistochemistry Antibodies to CD4, CD8, CD3, conjugated with various fluorochromes [FITC, phycoerythrin (PE), peridinin-chlorophyll-protein (PerCp), allophycocyanin (APC), PE-Cy7] were from BD Biosciences or eBiosciences (San Diego, CA). For further LL37-specific T-cell characterization, FITC-, APC-, PE-, PerCp-, PerCpCy5.5-, APC-Cy7-, AlexaFluor488-conjugated CCR6, -CLA, -CXCR5 (FAB190), PD1, -ICOS, -CD38, CD19, CD20, CD27, CD138 antibodies were purchased from BD Biosciences, eBiosciences, Novus Biologicals (Littleton, CO), R&D (Minneapolis, MN), Invitrogen Life Technologies. […]
Purified pDCs were seeded into 96-well round-bottom plates at 3.5/5 × 10^4 cells per well in 200 μl RPMI 1640 (GIBCO), supplemented with 15% fetal calf serum (FCS), 1% Hepes and 1% sodium piruvate. […] IFN-α in supernatants was measured by enzyme linked immunosorbent assay (ELISA) (MabTech, France) after 24 hours. […]

Substance: LLGDFFR(cit)KSKEKIGKEFKR(cit)IVQR(cit)IKDFLR(cit)NLVPR(cit)TES [cit-LL37, citrullinated LL37 (citrullinated at all five arginin positions)]
- adjuvant activity for DCs: completely devoid of adjuvant activity for DCs

Source: publication PMC7125190, “Native/citrullinated LL37-specific T-cells help autoantibody production in Systemic Lupus Erythematosus” (Scientific Reports, 2020)
